Type in all cases: binding
Experiment [1] has as its system double-stranded bacteriophage λ cl857 DNA that is digested with HindIII restriction endonuclease. As to the kind of experiment: Detecting nucleic acids in gels. Particulars: 1 micromolar dye. The protocol: DNA samples are loaded onto agarose or polyacrylamide gels and electrophoresed using standard conditions. Selected dyes of the invention are dissolved in DMSO at a concentration of 1-10 micromolar and diluted into 0.5×TBE buffer to a final concentration of 1 micromolar dye. Gels are incubated for 20-90 minutes in this staining solution, with gentle agitation, at room temperature, protected from light. Nucleic acids are visualized by transillumination at 300 nm, followed by direct visual detection or photography using Polaroid black-and-white print film. Nucleic acids are alternatively visualized by scanning using a FMBIO II laser scanner with a 532 nm frequency-doubled YAG laser source or a charge-coupled device camera system coupled with an ultraviolet (300 nm) light source, or a visible light transilluminator.

For experiment [2] the test system is unchanged. Nature of the experiment: Detecting nucleic acids in gels. Particulars: POLAROID 667 B&W film; FOTODYNE 254 nm epi.; 1 micromolar dye.
The subject of a further experiment is double-stranded DNA. As to the kind of experiment: Detecting double-stranded DNA in solution (fluorescence microplate reader). On the procedure:
Samples containing 0.1 ng/mL to 1 microgram/mL double-stranded DNA are prepared in 10 mM Tris-HCl, 1 mM EDTA, pH 7.5. The selected dye of the invention is dissolved in DMSO at a concentration of 1-10 mM and then diluted into the same buffer at a concentration sufficient to achieve final optical densities of 0.1 and 0.01 at 500 nm, 530 nm, 540 nm or 560 nm. Equal volumes (100 microliters each) of DNA sample solution and dye solution at each concentration are combined and mixed gently at room temperature in a microplate well.
Samples are allowed to equilibrate for 5-60 minutes, protected from light, and the fluorescence of the sample is measured using a fluorescence microplate reader. DNA concentration is determined by comparison of the sample fluorescence with a standard curve obtained with that dye for each dye concentration. The sensitivity limit of several dyes in this assay is shown (Table 5).

In experiment [3] the test system is 18-base oligodeoxynucleotide sequencing primer. Nature of the experiment: Detecting oligonucleotides in solution. On the procedure: Selected dyes of the invention are dissolved in DMSO at 1-10 micromolar concentration, then diluted into 10 mM Tris-HCl, 1 mM EDTA, pH 7.5 to a final optical density of 0.1 or 0.01 at 530 nm or 540 nm. The resulting dye solutions are combined with an equal volume of an 18-base oligodeoxynucleotide sequencing primer solution at concentrations of 0.1 ng/mL to 1 microgram/mL in the same buffer. The resulting mixture is mixed gently and incubated for 5-60 minutes at room temperature, protected from light, and the sample fluorescence is measured in a fluorescence microplate reader.

Experiment [4] deals with Escherichia coli ribosomal RNA. Nature of the experiment: Detecting RNA in solution. The protocol: Selected dyes of the invention are dissolved in DMSO at 1-10 micromolar concentration, then diluted into 10 mM Tris-HCl, 1 mM EDTA, pH 7.5 to a final optical density of 0.1 or 0.01 at 530 nm or 540 nm. These dye solutions are combined with an equal volume of Escherichia coli ribosomal RNA at concentrations ranging from 0.25 ng/mL to 1 microgram/mL in microplate wells. The resulting mixtures are mixed gently and incubated for 5-60 minutes at room temperature, protected from light, and the sample fluorescence is measured.

The mark [5] stands for this setting: BOEHRINGER MANNHEIM LUMIIMAGER CCD, 300 nm trans., 520 nm em.
[6] abbreviates: BOEHRINGER MANNHEIM LUMIIMAGER CCD, 300 nm trans., 545 nm em.
The mark [7] stands for this setting: HITACHI FMBIO II laser scanner, 532 nm freq.-doubled YAG laser.
Setting [8] is: POLAROID 667 B&W film, DARK READER visible light box.
Where [9] appears, read: POLAROID 667 B&W film, FOTODYNE 300 nm trans.
The mark [10] stands for this setting: Excitation 530 nm/Emission 560 nm.
Where [11] appears, read: Excitation 540 nm/Emission 570 nm.
[12] abbreviates: Excitation 560 nm/Emission 585 nm.
Setting [13] is: Excitation 500 nm/Emission 560 nm.

Molecules are shown by their SMILES. A value given as a limit tells only on which side of the number the result lay.

With `CCCCC1=C/C(=C\c2nc3c(ccc[n+]3C)o2)c2ccccc2N1c1ccccc1.[I-]` [Compound 15], the “Sensitivity for detecting double-stranded DNA in agarose gels” value (from here on “Sensitivity … in agarose gels”) was 210 pg in experiment [1] (setting [5]); 100 pg in experiment [1] (setting [6]); 100 pg in experiment [1] (setting [7]); 480 pg in experiment [1] (setting [8]); 240 pg in experiment [1] (setting [9]); 60 pg in experiment [2]. Moreover, the “Sensitivity Limit, High dye concentration (0.1 OD)” value (“Sensitivity Limit … (0.1 OD)” for short) with double-stranded DNA (setting [10]) stood at 10 ng/mL. Moreover, the “Sensitivity Limit, Low dye concentration (0.01 OD)” value (“Sensitivity Limit … (0.01 OD)” below) in the experiment on double-stranded DNA (setting [10]) is 0.5 ng/mL.

For `C[n+]1cccc2oc(/C=C3\C=C(c4ccccc4)N(c4ccccc4)c4ccccc43)nc21.[I-]` [Compound 17], in the experiment on double-stranded DNA (setting [10]), the “Sensitivity Limit … (0.1 OD)” value is less than 10 ng/mL and the “Sensitivity Limit … (0.01 OD)” value came to 2.0 ng/mL.

Consider `CCN1C(c2ccccc2)=C/C(=C\c2nc3c(ccc[n+]3C)o2)c2cc3c(cc21)OCO3.[I-]` [Compound 18], for which the “Sensitivity … in agarose gels” value in experiment [1] (setting [5]) worked out at 210 pg; in experiment [1] (setting [6]), 100 pg; in experiment [1] (setting [7]), 50 pg; in experiment [1] (setting [9]) it was 120 pg; in experiment [2], 60 pg. For the same compound, the figures for the “Sensitivity Limit … (0.1 OD)” value (in experiment [3] (setting [10]); in experiment [4] (setting [10]); in the experiment on double-stranded DNA (setting [10])) were less than 10 ng/mL, 10 ng/mL and less than 10 ng/mL, respectively. The results for the “Sensitivity Limit … (0.01 OD)” value (in experiment [3] (setting [10]); in experiment [4] (setting [10]); in the experiment on double-stranded DNA (setting [10])) were greater than 10 ng/mL, 1.2 ng/mL and 0.2 to 0.5 ng/mL, respectively.

`COc1ccc2c(c1)/C(=C/c1nc3c(ccc[n+]3C)o1)C=C(c1ccccc1)N2C.[I-]` [Compound 19]: the entries for the “Sensitivity Limit … (0.1 OD)” value (in experiment [3] (setting [11]); in experiment [4] (setting [11]); with double-stranded DNA (setting [11])) were less than 10 ng/mL, 20 ng/mL and less than 10 ng/mL, respectively. Further, the “Sensitivity Limit … (0.01 OD)” value in experiment [3] (setting [11]) is greater than 10 ng/mL; in experiment [4] (setting [11]), 10 ng/mL; in the experiment on double-stranded DNA (setting [11]) it was 0.5 ng/mL.

For the compound `COc1ccc2c(c1)N(C)C(c1ccccc1)=C/C2=C\c1nc2c(ccc[n+]2C)o1.[I-]` [Compound 21], the “Sensitivity … in agarose gels” value in experiment [1] (setting [5]) amounted to 420 pg; in experiment [1] (setting [6]) it was 50 pg; in experiment [1] (setting [7]), 50 pg; in experiment [1] (setting [9]) it was 120 pg; in experiment [2], 60 pg. For the same compound, the “Sensitivity Limit … (0.1 OD)” value in the experiment with double-stranded DNA (setting [10]) was less than 10 ng/mL. Also, the “Sensitivity Limit … (0.01 OD)” value in the experiment with double-stranded DNA (setting [10]) is 0.2 ng/mL.

Consider `CCN(CC)Cc1ccc(C2=C/C(=C\c3nc4c(ccc[n+]4C)o3)c3cc(OC)ccc3N2C)cc1.[I-]` [Compound 23], for which the “Sensitivity … in agarose gels” value in experiment [1] (setting [5]) is given as 830 pg; in experiment [1] (setting [6]), 100 pg; in experiment [1] (setting [7]), 5 pg; in experiment [1] (setting [8]), 240 pg; in experiment [1] (setting [9]), 120 pg; in experiment [2], 60 pg. Moreover, the “Sensitivity Limit … (0.1 OD)” value is less than 10 ng/mL in experiment [3] (setting [11]), 200 ng/mL in experiment [4] (setting [11]) and less than 10 ng/mL in the experiment with double-stranded DNA (setting [11]). Besides, the “Sensitivity Limit … (0.01 OD)” value in experiment [3] (setting [11]) was determined as 1.0 ng/mL; in experiment [4] (setting [11]) it was 2.5 ng/mL; in the experiment on double-stranded DNA (setting [11]), 0.2 ng/mL.

In the case of `C[n+]1cccc2oc(/C=C3\C=C(Cl)N(c4ccccc4)c4ccccc43)nc21` [Compound 29], in the experiment with double-stranded DNA (setting [11]), the “Sensitivity Limit … (0.1 OD)” value turned out to be 100 ng/mL and the “Sensitivity Limit … (0.01 OD)” value amounted to 2.0 ng/mL.

As to `CCN(CC)C1=C/C(=C\c2nc3c(ccc[n+]3C)o2)c2ccccc2N1c1ccccc1` [Compound 30], in the experiment with double-stranded DNA (setting [10]), the “Sensitivity Limit … (0.1 OD)” value turned out to be 10 ng/mL and the “Sensitivity Limit … (0.01 OD)” value is 1.0 ng/mL.

On to `CN1C=C/C(=C\c2nc3cc[n+](C)cc3o2)c2ccccc21.[I-]` [Compound 31], for which, in the experiment with double-stranded DNA (setting [10]), the “Sensitivity Limit … (0.1 OD)” value came out at 50 ng/mL and the “Sensitivity Limit … (0.01 OD)” value turned out to be 2.0 ng/mL.

Consider `CN1C(Sc2ccccn2)=C/C(=C\c2nc3c(ccc[n+]3C)s2)c2ccccc21.[I-]` [Compound 32], for which, in the experiment on double-stranded DNA (setting [10]), the “Sensitivity Limit … (0.1 OD)” value was 10 ng/mL and the “Sensitivity Limit … (0.01 OD)” value was 1.0 ng/mL.

As for `CN1C=C/C(=C\c2sc3ncccc3[n+]2C)c2ccccc21.[I-]` [Compound 33], in the experiment on double-stranded DNA (setting [11]), the “Sensitivity Limit … (0.1 OD)” value was 100 ng/mL and the “Sensitivity Limit … (0.01 OD)” value is greater than 10 ng/mL.

Consider `CN1C=C/C(=C\c2nc3c(cc(Cl)c[n+]3C)s2)c2ccccc21.[I-]` [Compound 34], for which, in the experiment with double-stranded DNA (setting [11]), the “Sensitivity Limit … (0.1 OD)” value was less than 10 ng/mL and the “Sensitivity Limit … (0.01 OD)” value turned out to be 0.2 ng/mL.

For `CN1C=C/C(=C\c2nc3c(cc(Cl)c[n+]3C)s2)c2ccccc21.[I-]` [Compound 35], in the experiment with double-stranded DNA (setting [11]), the “Sensitivity Limit … (0.1 OD)” value is 10 ng/mL and the “Sensitivity Limit … (0.01 OD)” value turned out to be 0.5 ng/mL.

For the compound `CN1C=C/C(=C\c2nc3c(cc(Cl)c[n+]3C)s2)c2ccccc21.[I-]` [Compound 37], in the experiment on double-stranded DNA (setting [12]), the “Sensitivity Limit … (0.1 OD)” value worked out at 10 ng/mL and the “Sensitivity Limit … (0.01 OD)” value amounted to 2.0 ng/mL.

Take `CN1C=C/C(=C\c2nc3c(cc(Cl)c[n+]3C)s2)c2ccccc21.[I-]` [Compound 38]: in the experiment on double-stranded DNA (setting [12]), the “Sensitivity Limit … (0.1 OD)” value turned out to be 200 ng/mL and the “Sensitivity Limit … (0.01 OD)” value was determined as 5.0 ng/mL.

With `CN1C=C/C(=C\c2nc3c(cc(Cl)c[n+]3C)s2)c2ccccc21.[I-]` [Compound 39], in the experiment on double-stranded DNA (setting [12]), the “Sensitivity Limit … (0.1 OD)” value was 10 ng/mL and the “Sensitivity Limit … (0.01 OD)” value came to 5.0 ng/mL.

Consider `CN1C=C/C(=C\c2nc3c(cc(Cl)c[n+]3C)s2)c2ccccc21.[I-]` [Compound 40], for which, in the experiment with double-stranded DNA (setting [12]), the “Sensitivity Limit … (0.1 OD)” value came to 10 ng/mL and the “Sensitivity Limit … (0.01 OD)” value stood at 1.0 ng/mL.

Turning to `CN1C(Cl)=C/C(=C\c2nc3c(cc(Cl)c[n+]3C)s2)c2ccccc21.[Cl-]` [Compound 41], in the experiment on double-stranded DNA (setting [12]), the “Sensitivity Limit … (0.1 OD)” value was 10 ng/mL and the “Sensitivity Limit … (0.01 OD)” value is greater than 10 ng/mL.

`CN1C=C/C(=C\c2nc3c(ccc[n+]3C)o2)c2ccccc21.Cc1ccc(S(=O)(=O)[O-])cc1` [Compound 48]: in the experiment with double-stranded DNA (setting [13]), the “Sensitivity Limit … (0.1 OD)” value was 10 ng/mL and the “Sensitivity Limit … (0.01 OD)” value was greater than 10 ng/mL.

For the compound `CN1C=CC(Cc2sc3c(F)nc(F)c(F)c3[n+]2C)c2ccccc21.[I-]` (stereo not drawn) [Compound 49], in the experiment on double-stranded DNA (setting [13]), the “Sensitivity Limit … (0.1 OD)” value worked out at 20 ng/mL and the “Sensitivity Limit … (0.01 OD)” value is greater than 10 ng/mL.

In the case of `CC1/C(=C/c2nc3c(ccc[n+]3C)o2)C=Cc2ccccc21.Cc1ccc(S(=O)(=O)[O-])cc1` (stereo not drawn) [Compound 53], in the experiment on double-stranded DNA (setting [13]), the “Sensitivity Limit … (0.1 OD)” value turned out to be 10 ng/mL and the “Sensitivity Limit … (0.01 OD)” value is greater than 10 ng/mL.

For the compound `COC1=C/C(=C\c2nc3c(ccc[n+]3C)o2)c2ccccc2N1C` [Compound 54], in the experiment with double-stranded DNA (setting [13]), the “Sensitivity Limit … (0.1 OD)” value was determined as 10 ng/mL and the “Sensitivity Limit … (0.01 OD)” value stood at 1.0 ng/mL.

The values above are taken from patent US8883415B2, “Aza-benzazolium containing cyanine dyes” (Life Technologies Corporation, priority 1999, dated 2014).
